Columns and labels:
Human Axl = biological target: T1, Human Axl (Homo sapiens, UniProt P30530, Q764R); experiment: Human AXL kinase assay (33P-phosphoryl transfer radiometric, KinaseProfiler); conditions: biochemical activity; 10 μM ATP
T1 construct: Human Axl (residues H473-A894 with Q764R, 161 nM); purchased Eurofins Pharma Discovery Services UK Limited (KinaseProfiler service)
T1 sequence (P30530 473-894 Q764R): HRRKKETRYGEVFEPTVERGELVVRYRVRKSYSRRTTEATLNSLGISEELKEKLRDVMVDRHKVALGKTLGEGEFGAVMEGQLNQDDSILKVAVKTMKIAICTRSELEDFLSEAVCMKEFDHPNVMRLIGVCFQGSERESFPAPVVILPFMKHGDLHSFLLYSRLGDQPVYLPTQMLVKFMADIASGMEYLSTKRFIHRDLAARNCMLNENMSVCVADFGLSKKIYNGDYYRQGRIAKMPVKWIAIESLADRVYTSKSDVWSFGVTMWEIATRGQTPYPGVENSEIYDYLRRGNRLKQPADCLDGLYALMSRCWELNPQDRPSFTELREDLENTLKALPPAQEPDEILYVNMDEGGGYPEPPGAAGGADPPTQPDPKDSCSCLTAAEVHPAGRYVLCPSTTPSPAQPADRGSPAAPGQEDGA
Procedure: Kinase activity and compound inhibition were investigated using the ^33P-Phosphoryl transfer radiometric kinase assay, performed using the KinaseProfiler™ service of Eurofins Pharma Discovery Services UK Limited. Dose-response experiments were performed using nine compound concentrations in a 96-well microtiter plate. For each assay, all compounds were prepared to a 50× final assay concentration (50 μM) in 100% DMSO, then diluted in a half-log series, with the final top concentration at 1 μM. This working stock of the compound was added to the assay well as the first component in the reaction, followed by the remaining components as detailed in the following assay protocols below. The positive control wells (100% kinase activity) contain all components of the reaction including 2% DMSO (control for solvent effects), except the compound of interest. Blank wells contain all components of the reaction, with the reference inhibitor, staurosporine. This reference compound was used to abolish kinase activity and generated the 0% kinase activity base-line. IC50 values were calculated by nonlinear regression analysis using the sigmoidal dose-response (variable slope) curve fit on XLFit version 5.3 (ID Business Solutions).
Human Axl (residues H473-A894 with Q764R, 161 nM) was incubated with 8 mM MOPS pH 7.0, 0.2 mM EDTA, 250 μM KKSRGDYMTMQIG, 10 mM magnesium acetate, and 10 μM [y-^33P-ATP]. The reaction was initiated by the addition of the Mg/ATP mix. After incubation for 40 minutes at room temperature, the reaction was stopped by the addition of phosphoric acid to a concentration of 0.5%. A reaction aliquot of 10 μL was then spotted onto a P30 filtermat and washed four times for 4 minutes in 0.425% phosphoric acid and once in methanol prior to drying and scintillation counting. Incorporated ^33P was measured using the Wallac Microbeta scintillation counter (Perkin Elmer).

AXL = biological target: T2, AXL (Homo sapiens, UniProt P30530); experiment: AXL autophosphorylation ELISA in A-172 cells; format: cell-based; conditions: cellular activity, Gas6-stimulated, phospho-AXL ELISA
T2 construct: endogenous in cells; host or cells: A-172 glioblastoma cells (ATCC #CRL-1620)
T2 sequence (P30530 26-894): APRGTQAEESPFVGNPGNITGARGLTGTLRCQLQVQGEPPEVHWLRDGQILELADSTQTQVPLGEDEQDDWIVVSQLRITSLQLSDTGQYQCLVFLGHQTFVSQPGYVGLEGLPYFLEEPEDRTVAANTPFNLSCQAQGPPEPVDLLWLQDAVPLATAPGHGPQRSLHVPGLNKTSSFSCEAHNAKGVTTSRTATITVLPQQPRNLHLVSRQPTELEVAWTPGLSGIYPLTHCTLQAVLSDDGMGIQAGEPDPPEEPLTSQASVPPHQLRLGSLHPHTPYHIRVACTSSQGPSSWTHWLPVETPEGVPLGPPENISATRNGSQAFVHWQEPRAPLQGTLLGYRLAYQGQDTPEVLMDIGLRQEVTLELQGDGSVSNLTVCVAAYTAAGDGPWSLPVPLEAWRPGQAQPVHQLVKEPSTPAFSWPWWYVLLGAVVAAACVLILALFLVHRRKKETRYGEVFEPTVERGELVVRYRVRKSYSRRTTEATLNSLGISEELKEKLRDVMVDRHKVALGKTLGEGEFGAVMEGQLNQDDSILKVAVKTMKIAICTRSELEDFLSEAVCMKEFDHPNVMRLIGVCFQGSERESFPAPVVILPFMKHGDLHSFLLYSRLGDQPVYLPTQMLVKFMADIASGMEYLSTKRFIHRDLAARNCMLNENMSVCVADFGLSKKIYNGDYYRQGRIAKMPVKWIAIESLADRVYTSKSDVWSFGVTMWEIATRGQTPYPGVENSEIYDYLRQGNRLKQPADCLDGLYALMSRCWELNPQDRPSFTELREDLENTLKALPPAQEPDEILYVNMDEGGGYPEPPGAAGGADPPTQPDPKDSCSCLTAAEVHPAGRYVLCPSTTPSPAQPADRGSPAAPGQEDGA
Method in brief: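 Serum-starved (24 h) A-172 glioblastoma cells got an 8-point compound series (0.3% DMSO) for 1 h, then 1 μg/mL human Gas6 for 15 min. Lysate phospho-AXL quantified by ELISA against phospho-AXL standard, normalized to DMSO and reference-inhibitor controls; IC50 by 4-parameter logistic fit.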

IC50 (Human Axl) [nM] | IC50 (AXL) [nM] | SMILES
10 to 100 | 10 to 100 | O=C(Nc1ccc(F)cc1)C1(C(=O)Nc2ccc(Oc3ccnc4cc(-c5cnn(C(F)(F)F)c5)ccc34)cc2)CC1 [Compound 12, 1-N′-(4-Fluorophenyl)-1-N-[4-[7-[1-(trifluoromethyl)pyrazol-4-yl]quinolin-4-yl]oxyphenyl]cyclopropane-1,1-dicarboxamide]
10 to 100 | 10 to 100 | O=C(Nc1ccc(F)cc1)C1(C(=O)Nc2ccc(Oc3ccnc4cc(-c5cnn(C6CC6)c5)ccc34)cc2)CC1 [Compound 22, 1-N-[4-[7-(1-Cyclopropylpyrazol-4-yl)quinolin-4-yl]oxyphenyl]-1-N′-(4-fluorophenyl)cyclopropane-1,1-dicarboxamide]
100 to 1000 | > 300 | C[Si](C)(C)C#Cc1ccc2c(Oc3ccc(NC(=O)C4(C(=O)Nc5ccc(F)cc5)CC4)cc3)ccnc2c1 [Compound 63, 1-N′-(4-Fluorophenyl)-1-N-[4-[7-(2-trimethylsilylethynyl)quinolin-4-yl]oxyphenyl]cyclopropane-1,1-dicarboxamide]
≤ 10 | ≤ 10 | O=C(Nc1ccc(F)cc1)C1(C(=O)Nc2ccc(Oc3ccnc4cc(-c5cnn(C6COC6)c5)ccc34)cc2)CC1 [Compound 24, 1-N′-(4-Fluorophenyl)-1-N-[4-[7-[1-(oxetan-3-yl)pyrazol-4-yl]quinolin-4-yl]oxyphenyl]cyclopropane-1,1-dicarboxamide]
10 to 100 | 10 to 100 | O=C(Nc1ccc(F)cc1)C1(C(=O)Nc2ccc(Oc3ccnc4cc(-c5cccnc5)ccc34)cc2)CC1 [Compound 25, 1-N′-(4-Fluorophenyl)-1-N-[4-(7-pyridin-3-ylquinolin-4-yl)oxyphenyl]cyclopropane-1,1-dicarboxamide]
10 to 100 | > 300 | C#Cc1ccc2c(Oc3ccc(NC(=O)C4(C(=O)Nc5ccc(F)cc5)CC4)cc3)ccnc2c1 [Compound 64, 1-N-[4-(7-Ethynylquinolin-4-yl)oxyphenyl]-1-N′-(4-fluorophenyl)cyclopropane-1,1-dicarboxamide]
≤ 10 | ≤ 10 | O=C(Nc1ccc(F)cc1)C1(C(=O)Nc2ccc(Oc3ccnc4cc(-c5cnn(CCF)c5)ccc34)cc2)CC1 [Compound 14, 1-N-[4-[7-[1-(2-Fluoroethyl)pyrazol-4-yl]quinolin-4-yl]oxyphenyl]-1-N′-(4-fluorophenyl)cyclopropane-1,1-dicarboxamide]
≤ 10 | ≤ 10 | CC(=O)N1CCC(n2cc(-c3ccc4c(Oc5ccc(NC(=O)C6(C(=O)Nc7ccc(F)cc7)CC6)cc5)ccnc4c3)cn2)CC1 [Compound 62, 1-N-[4-[7-[1-(1-Acetylpiperidin-4-yl)pyrazol-4-yl]quinolin-4-yl]oxyphenyl]-1-N′-(4-fluorophenyl)cyclopropane-1,1-dicarboxamide]
100 to 1000 | > 300 | O=C(Nc1ccc(F)cc1)C1(C(=O)Nc2ccc(Oc3ccnc4cc(-c5cnn[nH]5)ccc34)cc2)CC1 [Compound 65, 1-N′-(4-Fluorophenyl)-1-N-[4-[7-(1H-triazol-5-yl)quinolin-4-yl]oxyphenyl]cyclopropane-1,1-dicarboxamide]
≤ 10 | ≤ 10 | O=C(Nc1ccc(F)cc1)C1(C(=O)Nc2ccc(Oc3ccnc4cc(-c5cn[nH]c5)ccc34)cc2)CC1 [Compound 67, 1-N′-(4-Fluorophenyl)-1-N-[4-[7-(1H-pyrazol-4-yl)quinolin-4-yl]oxyphenyl]cyclopropane-1,1-dicarboxamide]
100 to 1000 | > 300 | CN(C(=O)C1(C(=O)Nc2ccc(Oc3ccnc4cc(-c5cnn(C)c5)ccc34)cc2)CC1)c1ccc(F)cc1 [Compound 82A, 1-N′-(4-Fluorophenyl)-1-N′-methyl-1-N-[4-[7-(1-methylpyrazol-4-yl)quinolin-4-yl]oxyphenyl]cyclopropane-1,1-dicarboxamide]
≤ 10 | ≤ 10 | Cn1cc(-c2ccc3c(Oc4ccc(NC(=O)C5(C(=O)Nc6ccc(F)cc6)CC5)cc4)ccnc3c2)cn1 [Compound 11, 1-N′-(4-Fluorophenyl)-1-N-[4-[7-(1-methylpyrazol-4-yl)quinolin-4-yl]oxyphenyl]cyclopropane-1,1-dicarboxamide]
≤ 10 | ≤ 10 | COc1cc2c(Oc3ccc(NC(=O)C4(C(=O)Nc5ccc(F)cc5)CC4)cc3)ccnc2cc1-c1cnn(C)c1 [Compound 76, 1-N′-(4-Fluorophenyl)-1-N-[4-[6-methoxy-7-(1-methylpyrazol-4-yl)quinolin-4-yl]oxyphenyl]cyclopropane-1,1-dicarboxamide]
≤ 10 | ≤ 10 | O=C(Nc1ccc(F)cc1)C1(C(=O)Nc2ccc(Oc3ccnc4cc(-c5cnn(CC(F)F)c5)ccc34)cc2)CC1 [Compound 15, 1-N-[4-[7-[1-(2,2-Difluoroethyl)pyrazol-4-yl]quinolin-4-yl]oxyphenyl]-1-N′-(4-fluorophenyl)cyclopropane-1,1-dicarboxamide]
≤ 10 | ≤ 10 | O=C(Nc1ccc(F)cc1)C1(C(=O)Nc2ccc(Oc3ccnc4cc(-c5cnoc5)ccc34)cc2)CC1 [Compound 57, 1-N′-(4-Fluorophenyl)-1-N-[4-[7-(1,2-oxazol-4-yl)quinolin-4-yl]oxyphenyl]cyclopropane-1,1-dicarboxamide]
≤ 10 | 10 to 100 | Cn1ncc(-c2ccc3c(Oc4ccc(NC(=O)C5(C(=O)Nc6ccc(F)cc6)CC5)cc4)ccnc3c2)n1 [Compound 86, 1-N′-(4-Fluorophenyl)-1-N-[4-[7-(2-methyltriazol-4-yl)quinolin-4-yl]oxyphenyl]cyclopropane-1,1-dicarboxamide]
≤ 10 | 10 to 100 | Cc1cc2c(Oc3ccc(NC(=O)C4(C(=O)Nc5ccc(F)cc5)CC4)cc3)ccnc2cc1-c1cnn(C)c1 [Compound 78, 1-N′-(4-Fluorophenyl)-1-N-[4-[6-methyl-7-(1-methylpyrazol-4-yl)quinolin-4-yl]oxyphenyl]cyclopropane-1,1-dicarboxamide]
≤ 10 | 10 to 100 | O=C(Nc1ccc(F)cc1)C1(C(=O)Nc2ccc(Oc3ccnc4cc(-c5ncc[nH]5)ccc34)cc2)CC1 [Compound 74, 1-N′-(4-Fluorophenyl)-1-N-[4-[7-(1H-imidazol-2-yl)quinolin-4-yl]oxyphenyl]cyclopropane-1,1-dicarboxamide]
≤ 10 | 10 to 100 | O=C(Nc1ccc(F)cc1)C1(C(=O)Nc2ccc(Oc3ccnc4cc(-c5cncnc5)ccc34)cc2)CC1 [Compound 27, 1-N′-(4-Fluorophenyl)-1-N-[4-(7-pyrimidin-5-ylquinolin-4-yl)oxyphenyl]cyclopropane-1,1-dicarboxamide]
